Test results taken from patent US8759402B2, “Method to inhibit ischemia and reperfusion injury” (Radical Therapeutix, priority 2002, dated 2014).

Legend:
isolated rabbit heart = test: Langendorff perfusion, global ischemia/reperfusion of isolated rabbit heart (infarct size by TTC, CK release)
Protocol: The global ischemia protocol was adapted from that of Tsuchida et al. (1994). All procedures were approved by the Animal Care and Use Committee at The Scripps Research Institute (TSRI). To obtain isolated hearts, hearts were excised from an anesthetized mammal such as a rabbit and quickly cannulated onto the Langendorff perfusion apparatus. The heart is perfused with Krebs-Ringer buffer for 15 minutes before ischemia/reperfusion episodes. No-flow ischemia is maintained for 30 minutes and reperfusion is accomplished by restoring flow for 15 minutes (unless otherwise indicated). Ischemic preconditioning can be induced by three 5 minute cycles of no-flow ischemia and reperfusion immediately preceding the regular ischemia and reperfusion. In brief, the heart was excised from the anesthetized rabbit and quickly cannulated onto the Langendorff perfusion apparatus. The heart was perfused with Krebs-Ringer buffer for 15 minutes before ischemia/reperfusion episodes. No-flow ischemia was maintained for 30 minutes and reperfusion was accomplished by restoring flow for 15 minutes (unless otherwise indicated). Ischemic preconditioning was induced by three 5 minute cycles of no-flow ischemia and reperfusion immediately preceding the regular ischemia and reperfusion. The efficacy of these interventions was verified by measurement of creatine kinase (CK) release and infarct size measurement using triphenyl tetrazolium chloride (TTC) staining (Pain et al., 2000; Downey, 2001). The measurement of infarct size was essentially identical to that detailed by Downey (2001) except for the method of quantitation. After the TTC reaction, the heart slices were scanned into TIFF files and analyzed with Adobe Photoshop 5.5. The images were digitally manipulated in an identical manner to ensure equivalent outcome. […] The histogram counts of red and white were recorded. The percent infarction was calculated as white counts divided by the sum of red plus white counts.

isolated rat hearts = test: Langendorff perfusion, no-flow ischemia/reperfusion of isolated rat heart (infarct size by TTC, CK release, coronary flow); conditions: for coronary flow after ischemia: treated hearts, reperfusion; for CK release (in words) / infarct size (in words): cimetidine 200-600 μM, sulfaphenazole 10 μM and 300 μM; for infarct size (in words): 2 hours reperfusion
Protocol: FIG. 2. […] Adult rat hearts were perfused in Langendorff mode for 20 minutes, then subjected to 30 minutes no-flow ischemia followed by a 2 hour reperfusion. […] (A) After 2 hours of reperfusion, hearts were frozen and assessed for infarct size using TTC. Coronary effluent was collected for 15 minutes immediately before and after ischemia and assessed for CK release. […] All procedures were approved by the Animal Care and Use Committee at The Scripps Research Institute (TSRI). […] No-flow ischemia was maintained for 30 minutes and reperfusion was accomplished by restoring flow for 15 minutes for creatine kinase (CK) release determination and dihydroethidium (DHE) staining, or 120 minutes for infarct size determination by triphenyl tetrazolium chloride (TTC) staining. Measurement of CK activity was performed using the CK EC 2.7.3.2 UV-Test kit (Sigma) as per the manufacturer's instructions. The measurement of infarct size after TTC staining was performed as described in Example 1.

[1] = tested on: rabbit heart (circumflex coronary artery occlusion); test: Rabbit circumflex coronary artery occlusion and reperfusion; type: in vivo; conditions: n=6
Protocol: (A) At 4 hours, hearts were removed, immediately frozen and blindly assessed for infarct size. The decrease in left ventricular pressure from baseline was assessed after ischemia. […] Animals were mechanically ventilated with room air via a tracheostomy, and the heart was exposed by a median sternotomy. A suture ligature was passed around the circumflex coronary artery so it could be snare-occluded and reperfused as described in Gottlieb et al. (1994). Ischemia was induced by snare occlusion and confirmed by visual inspection. After 30 minutes of ischemia, the ligature was released and the heart was reperfused for 4 hours. The heart was then rapidly excised, and the normal area of perfusion marked by infusion of acridine orange. The heart was frozen and assessed for infarct size the following day using TTC staining. Infarct size as a percentage of the area at risk (demarcated by acridine orange staining) was determined by an observer blinded to the treatment status of the hearts.

[2] = tested on: mitochondrial respiratory chain Complex I, II, IV; test: Oxygen consumption (respiration) of mitochondria from perfused rat hearts; conditions: hearts perfused with chloramphenicol for 30 minutes
Protocol: FIG. 4. […] (B) Mitochondrial respiration was measured by polarography. […] Error bars represent standard deviation. […] Hearts were rapidly minced in ice-cold MSE buffer (in mmol/L, mannitol 220, sucrose 70, EGTA 2, MOPS 5 (pH 7.4), and taurine 2 supplemented with 0.2% fatty acid-free bovine serum albumin (BSA)). Heart tissue was homogenized in MSE with a Polytron type tissue grinder at 11,000 rpm for 2.5 seconds followed by 2 quick strokes at 500 rpm with a loose fit Potter-Elvehjem tissue grinder. The homogenate was centrifuged at 500 g twice for 5 minutes, saving the supernatant. Mitochondria were pelleted from the supernatant by centrifugation at 3000 g twice, and the pellet was rinsed with MSE buffer. The supernatant was saved as crude cytosol. The final pellet was rinsed and resuspended in 50 μl Incubation Medium (in mmol/L, mannitol 220, sucrose 70, EGTA 1, MOPS 5 (pH 7.4), taurine 2, MgCl2 10, and KH2PO4 5, supplemented with 0.2% fatty acid-free BSA) (Scholte et al., 1997). Mitochondria were incubated for 15 minutes on wet ice and protein concentration was determined with BSA as a standard by a Bradford assay. All work was performed on wet ice at 0° C. Oxygen consumption was measured at 30° C. with a Clark type oxygen electrode (Instech) in 600 μl KCl respiration buffer (in mmol/L: KCl 140, EGTA 1, MOPS 10 (pH 7.4), MgCl2 10, and KH2PO4 5, supplemented with 0.2% fatty acid-free BSA) (Scholte et al., 1997; Chance et al., 1961; McKee et al., 1990). Complex II activity was measured using 200 μg mitochondria with succinate, 5 mM, as a substrate. […] For each complex the ADP-stimulated respiration rate (state 3) was measured after the addition of 2 mM ADP; the ADP-independent respiration rate, oligomycin-insensitive (state 4) was measured after the addition of 2 μM oligomycin; and the maximal respiration rate was measured after uncoupling the mitochondria with 2 μM FCCP. Rates were calculated as nA O2/min/mg protein after subtracting the rate that was insensitive to the inhibitors antimycin A, 1 μM, for complex III, and KCN, 1 mM, for complex IV.

[3] = tested on: cytochrome oxidase subunit I; test: Immunodetection of mitochondrial-encoded proteins after CAP infusion (Example I); design: species or system rabbit; conditions: CAP infusion for as little as 15 minutes
[4] = tested on: mitochondrial-encoded proteins (CO-1, ND3); test: Western blotting of mitochondrial-encoded proteins after CAP perfusion (Example II); design: species or system rat; conditions: perfusion with CAP for 30 minutes
Protocol: Error bars represent standard deviation. […] Mitochondria (50 μg) were resolved by SDS-PAGE and transferred to PVDF nylon membranes. […] Detection was performed with ECL (Amersham, Piscataway, N.J.). Non-saturated autoradiographs were quantitated with Scion/NIH Image.

[5] = tested on: p46 (EF-Tumt) phosphorylation; test: Phosphorylation of mitochondrial p46 (EF-Tumt) with [γ-32P]ATP in the presence of kinase inhibitors; type: biochemical, rabbit
Protocol: For phosphorylation reactions, 100 μg of purified mitochondria was incubated in MSE buffer supplemented with 25 mmol/L HEPES-KOH [pH 7.5], 10 mmol/L magnesium acetate, 10 μmol/L ATP (cold), and 10 μCi [γ-^32P]ATP for 30 minutes at 30° C. with or without 250 μg of cytosol. The reaction mixture was subsequently centrifuged for 5 minutes at 10,000 g. The mitochondrial pellet was resuspended in 500 μL of MC buffer and washed twice. The mitochondrial proteins were resolved on a 12% polyacrylamide gel, transferred to nitrocellulose, and detected by autoradiography.
For protein kinase inhibition experiments, cytosols were incubated with the inhibitors at the indicated concentrations, then mitochondria were added and the reaction was initiated with the addition of ATP. Serine/threonine kinase inhibitors (Calbiochem, catalog No. 539572) included bisindolylmaleimide I, 10 nmol/L; H-89, 48 μmol/L; protein kinase G inhibitor, 86 μmol/L; ML-7, 0.3 μmol/L; KN-93, 0.37 μmol/L; and staurosporine, 10 nmol/L. Tyrosine kinase inhibitors (Calbiochem, catalogue No. 657021) included genistein, 25 μmol/L; PP2, 5 nmol/L; AG490, 15 μmol/L; AG1296, 1 μmol/L; and AG1478, 3 nmol/L.

[6] = tested on: AMMC demethylase (cytochrome P450) in rat liver microsomes; test: Fluorometric cytochrome P450 assay, AMMC demethylation in rat liver microsomes; type: biochemical; conditions: male, Sprague-Dawley, pH 7.4, probe AMMC (30 μM), AMMC substrate, read-out: IC50, inhibition of AMMC demethylation
Protocol: Microsomes were isolated from rat livers (Sprague-Dawley, male, 6-8 weeks) by differential centrifugation as described by Walles and coworkers (2001). Homogenized tissue was centrifuged at 11,000 g for 30 minutes at 4° C. The supernatant was further centrifuged at 170,000 g for 60 minutes at 4° C. The resulting pellet was resuspended in KCl buffer and centrifuged at 200,000 g for 40 minutes at 4° C. The microsomal fraction was then transferred into Tris-sucrose buffer (0.25 M sucrose, 20 mM Tris buffer, 5 mM EDTA). Protein concentrations were determined by bicinchoninic acid micro assay (Pierce). Microsomal solutions were aliquoted and stored at −80° C. until further use.

CYP2D6 = CYP2D6 (Homo sapiens, UniProt P10635); test: AMMC demethylation by recombinant CYP2D6; type: biochemical; conditions: recombinant system
CYP2D2 = target: T1, CYP2D2 (Rattus norvegicus, UniProt P10634); test: AMMC demethylase activity in CYP2D2 supersomes; conditions: sulfaphenazole 50 μM
T1 sequence (P10634 1-500): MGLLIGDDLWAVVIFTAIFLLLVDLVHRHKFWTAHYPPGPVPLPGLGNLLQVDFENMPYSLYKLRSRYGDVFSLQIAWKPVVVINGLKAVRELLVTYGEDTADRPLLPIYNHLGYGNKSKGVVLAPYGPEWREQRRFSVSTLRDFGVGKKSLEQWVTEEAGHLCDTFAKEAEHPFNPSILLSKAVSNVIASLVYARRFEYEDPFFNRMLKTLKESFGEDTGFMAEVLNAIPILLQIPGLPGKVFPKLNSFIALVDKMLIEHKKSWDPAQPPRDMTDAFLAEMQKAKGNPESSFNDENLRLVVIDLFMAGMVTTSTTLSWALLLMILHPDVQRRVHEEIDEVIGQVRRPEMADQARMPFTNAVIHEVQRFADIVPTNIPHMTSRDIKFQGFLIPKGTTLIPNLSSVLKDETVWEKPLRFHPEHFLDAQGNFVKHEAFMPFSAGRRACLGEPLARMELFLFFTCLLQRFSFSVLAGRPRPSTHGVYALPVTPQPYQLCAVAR
Protocol: Effect of sulfaphenazole on AMMC demethylase activity. (A) The rate of AHMC product formation was assessed and the IC50 value was calculated. (B) AHMC product formation was measured over 2 hours in baculovirus-infected CYP2D2-specific supersomes in the presence or absence of sulfaphenazole (50 μM) (SUL).
Assays were carried out in parallel at 37° C. in fluorescence detector microtiter plates (96 well). CYP2D2 supersomes, substrates (AMMC), product standard 3-[2-(N,N-diethyl-N-methylamino)ethyl-]-7-hydroxy-4-methylcoumarin (AMHC), and the NADPH generating system were obtained from BD Gentest (Woburn, Mass.). Reaction components were pre-warmed to 37° C. The assay was initiated by addition of the NADPH-regenerating system to substrate concentrations selected to give linear time-course profiles (AMMC, 30 μM) and rat liver microsomal protein (10 mg/ml) isolated as described above in phosphate buffer (50 mM, pH 7.4) (final organic co-solvent concentration, 0.1% acetonitrile) in the presence or absence of sulphaphenazole (50 μM AMMC). Reaction progression was followed by continuously monitoring AHMC formation (λex=390 nm and λem=460 nm) using a SPECTRAmax™ GEMINI dual-scanning microplate spectrofluorometer for 1 hour at 37° C. The residual absorption due to NADPH was compensated for throughout the analysis. Each assay was performed in at least triplicate. […]

[7] = tested on: H9c2 and neonatal rat cardiomyocytes; test: Hydrogen peroxide-induced apoptosis and superoxide production in cells
[8] = mitochondria incubated with control or ischemic cytosols, H-89 48 μmol/L, genistein 25 μmol/L

Sequence of CYP2D6 (P10635 whole entry): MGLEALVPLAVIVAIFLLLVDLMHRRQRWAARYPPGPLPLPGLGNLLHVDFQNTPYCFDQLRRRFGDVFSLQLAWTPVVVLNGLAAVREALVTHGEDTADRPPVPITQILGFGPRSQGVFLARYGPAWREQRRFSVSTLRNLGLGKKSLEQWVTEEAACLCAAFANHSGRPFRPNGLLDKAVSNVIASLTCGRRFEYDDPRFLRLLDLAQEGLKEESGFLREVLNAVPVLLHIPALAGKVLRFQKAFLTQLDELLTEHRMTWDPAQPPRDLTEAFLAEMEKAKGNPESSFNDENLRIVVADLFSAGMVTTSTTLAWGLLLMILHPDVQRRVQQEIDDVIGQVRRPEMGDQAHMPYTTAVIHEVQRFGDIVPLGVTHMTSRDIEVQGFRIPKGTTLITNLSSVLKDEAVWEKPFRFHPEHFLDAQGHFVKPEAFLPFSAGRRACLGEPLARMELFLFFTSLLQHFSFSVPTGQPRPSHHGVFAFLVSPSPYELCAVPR

O=C(N[C@H](CO)[C@H](O)c1ccc([N+](=O)[O-])cc1)C(Cl)Cl [CAP, chloramphenicol]
infarct size after ischemia and reperfusion (isolated rabbit heart; 100 μg/mL CAP in buffer throughout: 15 min stabilization, 30 min global ischemia, 2 h reperfusion, mean±SEM, untreated 64.1 (±4.1)): 43.1 (±6.4)
infarct size (isolated rabbit heart; CAP administered only in the last 15 minutes of the 2 hour reperfusion (control for TTC interference)): 69.2±5.7
CK release after global ischemia (isolated rabbit heart; CAP pretreatment, 100 μg/mL): reduced
infarct size (isolated rat hearts; CAP 300 μm before and after global no-flow ischemia (I/R+CAP), 30 min ischemia, 2 h reperfusion, SEM, n=5, untreated 43.2±3.2%): 16.0±3.6%
CK released after ischemia (isolated rat hearts; CAP administered prior to ischemia, SEM, n=5, untreated 2.25±0.28): 0.27±0.13 U/15 min
infarct size (isolated rat hearts; chloramphenicol administered immediately after ischemia (at reperfusion), n=5, untreated 43.2%): 21.7%
reduction of infarct size (isolated rat hearts; pretreatment of hearts prior to ischemia and reperfusion (summary)): about 90%
coronary flow after ischemia (isolated rat hearts): prevent the associated drop in coronary flow
infarct size, of the area at risk ([1]; CAP 20 mg/kg i.v. 30 min before 30 min occlusion, 4 h reperfusion, untreated 49.3 ±17.7): 18.3%
post-ischemic hypotension (decrease in left ventricular pressure from baseline) ([1]; CAP 20 mg/kg i.v., untreated −34.2±2.3): −13.3±2.2 mm H2O
Complex I State 4 ([2]; −CAP 13.74 ± 6.33): 12.09 ± 4.59 n Atoms O/min/mg
Complex II State 4 ([2]; −CAP 21.70 ± 5.89): 23.04 ± 7.32 n Atoms O/min/mg
Complex II State 3 ([2]; −CAP 85.47 ± 22.2): 83.58 ± 14.4 n Atoms O/min/mg
Complex IV State 4 ([2]; −CAP 113.99 ± 21): 116.89 ± 23 n Atoms O/min/mg
Complex I State 3 ([2]; −CAP 158.57 ± 32): 162.99 ± 31 n Atoms O/min/mg
Complex IV State 3 ([2]; −CAP 209.85 ± 40): 201.09 ± 23 n Atoms O/min/mg
immunodetection of mitochondrial-encoded cytochrome oxidase I [3]: near-complete loss
levels of mitochondrial-encoded proteins and respiratory chain activity [4]: not sufficient to alter

O=S(=O)(NCCNC/C=C/c1ccc(Br)cc1)c1cccc2cnccc12 [H-89]
phosphorylation of p46 [5, 8]: did not affect

CN/C(=N/CCSCc1nc[nH]c1C)NC#N [cimetidine]
CK release (in words) (isolated rat hearts): reduced CK release
infarct size (in words) (isolated rat hearts): dose-dependent reduction
coronary flow after ischemia (isolated rat hearts): prevent the associated drop in coronary flow

O=c1c(-c2ccc(O)cc2)coc2cc(O)cc(O)c12 [genistein]
phosphorylation of p46 ([5]; mitochondria from an ischemic heart incubated with genistein, no cytosol): able to inhibit
phosphorylation of p46 [5, 8]: reduced phosphorylation

Nc1ccc(S(=O)(=O)Nc2ccnn2-c2ccccc2)cc1 [sulfaphenazole]
CK release (in words) (isolated rat hearts): significant reduction
infarct size (in words) (isolated rat hearts): significant reduction
coronary flow after ischemia (isolated rat hearts): prevent the associated drop in coronary flow
IC50 at 1 h [6]: 500 nM
inhibition of CYP2D6 (AMMC demethylation) (CYP2D6): not inhibited
inhibition of CYP2D2 activity (AMMC demethylase) (CYP2D2): did not appear to significantly inhibit
rescue from hydrogen peroxide-induced apoptosis and superoxide production [7]: rescued

gentamicin sulfate
cardioprotection (isolated rat hearts; gentamicin in perfusion buffer): not cardioprotective
